Laboratory results: patent EP0103381B1, “Substituted anthra(1,9-cd)pyrazol-6(2H)-ones” (WARNER-LAMBERT COMPANY, priority 1982, dated 1984)

What was measured:
L1210 Leukemia (CDF1) = test: broad spectrum antitumor activity in mice, L1210 leukemia; type: in vivo; details: IP/IP
Excerpt: (§1) Broad Spectrum Antitumor Activity^* of 2-[2-(Diethylamino)ethyl]-7,10-dihydroxy-5-[[2-[(2-hydroxyethyl)amino]ethyl]amino]anthra[1-9-cd]pyrazol-6(2H)-one Dihydrochloride in Mice

B16 Melanoma (BDF1) = test: broad spectrum antitumor activity in mice, B16 melanoma (BDF1); type: in vivo; details: IP/IP
Excerpt: as §1

M5076 Ovary = test: broad spectrum antitumor activity in mice, M5076 ovary; type: in vivo; details: IP/IP
Excerpt: as §1

Colon 38 (BDF1) = test: broad spectrum antitumor activity in mice, Colon 38; type: in vivo; details: SC/IP, Q01D × 09, Dose 16 mg/kg
Excerpt: as §1

ADJ—PC6 Plasmacytoma = test: broad spectrum antitumor activity in mice, ADJ-PC6 plasmacytoma; type: in vivo; details: IP/IP
Excerpt: as §1

B16 Melanoma (B6C3F1) = test: broad spectrum antitumor activity in mice, B16 melanoma (B6C3F1); type: in vivo; details: I-/IP
Excerpt: as §1

Penicillium avellaneum = test: agar plate paper-disc inhibition zone screening; type: cell-based; details: Hamigera avellanea; Dose 3.0 mg/ml; read-out: Inhibition Zone Diameter mm (Dose mg/ml) P. Avellaneum
Summary of the method: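 Mycelia and spores from a six-day 28°C agar culture, suspended in saline with 0.05% Tween 80 at 20% transmittancy, were seeded into molten agar trays. Compounds at 3,000, 1,000, 500, 100 and 10 mcg/ml (solvent <10%) were applied on 12.7 mm paper discs. After at least 20-24 h incubation, inhibition zone diameter was measured in mm.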

[1] = system: HCT-8 (human colon adenocarcinoma) cells; test: in vitro activity against human colon adenocarcinoma (HCT-8), cell count; type: cell-based; details: Homo sapiens; HCT-8 cells, 60-65 hrs with compound; molar quantity of drug required to kill 50% of the tumor cells; read-out: ID50 Molar
Summary of the method: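 HCT-8 cells seeded at ~30,000 cells/ml in RPMI 1640 + 10% FCS, grown 48 hrs at 37°C, then exposed to compound 60-65 hrs. Lysed cells counted by Coulter counter; activity as percent of controls, reported as ID50 (molar quantity killing 50% of cells).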

Bacillus subtilis = test: agar plate paper-disc inhibition zone screening; type: cell-based; details: Dose 1.0 mg/ml, read-out: Inhibition Zone Diameter mm (Dose mg/ml) B. Subtilis
Summary of the method: (§2)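 Read-out: diameter (mm) of the inhibition zone around 12.7 mm paper discs after overnight (18-20 h) incubation at 37°C. Discs carried compound at 3,000-10 mcg/ml in alcohol, DMSO or DMF, final solvent <10%. Seeded agar trays used saline-suspended cells adjusted to 20-35% transmittancy.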

Escherichia coli = test: agar plate paper-disc inhibition zone screening; type: cell-based; details: Dose 0.5 mg/ml, read-out: Inhibition Zone Diameter mm (Dose mg/ml) E. Coli
Summary of the method: as §2

Aerobacter aerogenes = test: agar plate paper-disc inhibition zone screening; type: cell-based; details: Klebsiella aerogenes; Dose 1.0 mg/ml; read-out: Inhibition Zone Diameter mm (Dose mg/ml) A. Aerogenes
Summary of the method: as §2

Streptococcus faecalis = test: agar plate paper-disc inhibition zone screening; type: cell-based; details: Enterococcus faecalis; Dose 1.0 mg/ml; read-out: Inhibition Zone Diameter mm (Dose mg/ml) S. Faecalis
Summary of the method: as §2

## CCN(CC)CCn1nc2c3c(c(NCCNCCO)ccc31)C(=O)c1c(O)ccc(O)c1-2 [Example 28, 2-[2-(Diethylamino)ethyl]-7,10-dihydroxy-5-[[2-[(2-hydroxyethyl)amino]ethyl]amino]anthra[1,9-cd]pyrazol-6(2H)-one]
L1210 Leukemia (CDF1); Q01D × 09, Dose 1 mg/kg
  T/C × 100 (Percent): 137%
L1210 Leukemia (CDF1); Q01D × 09, Dose 2 mg/kg
  T/C × 100 (Percent): 144%
L1210 Leukemia (CDF1); Q01D × 09, Dose 4 mg/kg
  T/C × 100 (Percent): 178%
L1210 Leukemia (CDF1); Q01D × 09, Dose 8 mg/kg
  T/C × 100 (Percent): 240%
L1210 Leukemia (CDF1); Q01D × 09, Dose 16 mg/kg
  T/C × 100 (Percent): 133%
B16 Melanoma (BDF1); Q01D × 09, Dose 4 mg/kg
  T/C × 100 (Percent): 151%
B16 Melanoma (BDF1); Q01D × 09, Dose 8 mg/kg
  T/C × 100 (Percent): 176%
M5076 Ovary; Q04D × 04, Dose 1.25 mg/kg
  T/C × 100 (Percent): 143%
M5076 Ovary; Q04D × 04, Dose 2.5 mg/kg
  T/C × 100 (Percent): 233%
M5076 Ovary; Q04D × 04, Dose 5 mg/kg
  T/C × 100 (Percent): 186%
M5076 Ovary; Q04D × 04, Dose 10 mg/kg
  T/C × 100 (Percent): 260%
Colon 38 (BDF1)
  % Tumor Reduction: 71%
ADJ—PC6 Plasmacytoma; Q04D × 03, Dose 2 mg/kg
  T/C × 100 (Percent): 207%
ADJ—PC6 Plasmacytoma; Q04D × 03, Dose 4 mg/kg
  T/C × 100 (Percent): 216%
ADJ—PC6 Plasmacytoma; Q04D × 03, Dose 8 mg/kg
  T/C × 100 (Percent): 235%
ADJ—PC6 Plasmacytoma; Q04D × 03, Dose 16 mg/kg
  T/C × 100 (Percent): 163%
B16 Melanoma (B6C3F1); Q01D × 09, Dose 3 mg/kg
  T/C × 100 (Percent): 148%
B16 Melanoma (B6C3F1); Q01D × 09, Dose 6 mg/kg
  T/C × 100 (Percent): 189%
Penicillium avellaneum
  zone of inhibition at 3000 µg/mL: 0 mm
[1]
  IC50: 270 nM
Bacillus subtilis
  zone of inhibition at 1000 µg/mL: 15 mm
Escherichia coli
  zone of inhibition at 500 µg/mL: 14 mm
Aerobacter aerogenes
  zone of inhibition at 1000 µg/mL: 14 mm
Streptococcus faecalis
  zone of inhibition at 1000 µg/mL: 14 mm
